Measured values as given in patent US10064830B2, “Treatment and prevention of cardiovascular disease and thrombosis” (The Cleveland Clinic Foundation, priority 2012, dated 2018).
Entries after “also recorded” stand apart in the source; their conditions may differ.

Experiments:
[1] = tested on: endogenous foam cell formation; assay: Macrophage cholesterol content and plasma TMAO in mice on chow supplemented with choline, TMAO or DMB (Example 1); assay type: in vivo, C57BL/6J.Apoe−/− mice; conditions: normal chow supplemented with choline, TMAO or DMB vs normal chow control
Experimental: Male C57BL/6J.Apoe−/− mice (15 week old) were placed on normal chow (control) alone or supplemented in the presence of either choline (1.0%), TMAO (0.12%), or DMB (1.0%). Peritoneal macrophages were recovered from the indicated number of mice at 20 weeks of age and cellular cholesterol content was quantified by stable isotope dilution GC/MS, and normalized to DNA content.
Experiments were conducted during development of embodiments of the present invention to examine the structural specificity of phaophatidylcholine metabolites in promoting a pro-atherogenic macrophage phenotype as monitored by endogenous foam cell formation. C57BL/6J.Apoe−/− mice at time of weaning were placed on either normal chow diet (control) or normal chow supplemented with either choline, TMAO or the choline analog DMB, where the quaternary amine nitrogen of choline is replaced with a carbon (SEE FIG. 2, right). Thus, DMB is structurally identical to choline except there is no C—N bond for potential cleavage and TMA formation by gut flora.

[2] = tested on: platelets; assay: Ex vivo platelet aggregation triggered by ADP, platelets from mice on diets (Example 7, parts 2-4); assay type: in vivo; conditions: platelets from mice on high choline or TMAO diet +/- antibiotics or DMB
Experimental: (§1) In this example, mice were placed on either normal chow diet at time of weaning, or a high choline diet. After several weeks, whole blood was removed, and platelets isolated. The ability of a submaximal agonist of platelets, ADP, to trigger platelet aggregation was then determined. In parallel, plasma levels of TMAO were determined by established stable isotope dilution LC/MS/MS analyses. […] This is a clear signal of a pro-thrombotic phenotype in the mice on a high choline diet. In a similar study, the mice on the high choline were also placed on a cocktail of broad spectrum antibiotics (described above and in Wang et al., Nature 2011, April, 472(7341):57-63, incorporated by reference it its entirety for all purposes) to suppress intestinal microflora, and reduce plasma TMAO levels. […] Such drugs (e.g., DMB or antibiotics) are attractive since they should not induce excess bleeding (e.g., like commercial anti-thrombotic drugs like clopidogrel or Warfarin). That is, TMAO only accentuates platelet function, and reducing TMAO levels (like with DMB, antibiotic, or some other drug or approach, be it functional food, probiotic, or prebiotic) would decrease in vivo thrombosis, but not reduce below “normal” function, and thus not increase bleeding risk. […]

[3] = tested on: Atherosclerosis Prone ApoE−/− Mice; assay: Carotid artery in vivo thrombosis rates by vital microscopy, ApoE−/− mice (Example 7, part 5); conditions: diets +/- ABS for 3 weeks
Experimental: In this example, carotid artery in vivo thrombosis rates were determined using vital microscopy on the indicated groups of mice in FIG. 13. Mice were on the indicated diets +/− ABS for 3 weeks.
These studies extend to in vivo studies what was seen before with ex vivo platelet aggregation studies from mice on the various indicated diets. […] A shorter time indicates faster platelet aggregation (enhanced in vivo thrombosis).

[4] = tested on: wild-type mice; assay: Carotid artery in vivo thrombosis rates by vital microscopy, wild-type mice (Example 7, parts 6-7); conditions: for in vivo thrombosis rates: diets +/- ABS or DMB for 3 weeks
Experimental: This example repeats the study immediately above, excepts uses wild-type mice. The results are shown FIG. 14.
Carotid artery in vivo thrombosis rates were determined using vital microscopy on the indicated groups of mice shown in FIG. 15. Mice were on the indicated diets +/− ABS or DMB for 3 weeks.

[5] = tested on: gut flora; assay: Plasma TMA and TMAO in mice after 3 weeks on diets +/- ABS or DMB (Example 7, part 1); assay type: in vivo; conditions: female mice, 3 weeks on diet, chow or 1.0% wt/wt choline
Experimental: Six week old female mice were placed on the indicated diets +/− shown in FIG. 9, including Chow, CHOW+antibiotics (ABS; which was 0.5 g/L vancomycin, 1 g/L neomycin sulfate, 1 g/L metronidazole, and 1 g/L ampicillin), TMAO, CH (chow supplemented with 1.0% wt/wt choline), CH and ABS, and CH+DMB. Mice were placed on these diets at 6 weeks of age and maintained on the diets for 3 weeks. Plasma was then recovered and both TMA and TMAO were determined by stable isotope dilution LC/MS/MS.

[6] = Plasma lipoprotein profile of mice on supplemented chow (Example 3); assay type: in vivo; conditions: 1.3% DMB added to mouse diet
Experimental: Experiments were conducted during development of embodiments of the present invention to compare plasma levels of (1) cholesterol, (2) triglyceride, low density lipoprotein-cholesterol, and HDL cholesterol in mice fed chow, or chow supplemented with 1.3% choline, 1.3% DMB, or both (SEE FIG. 5).

[7] = tested on: peritoneal mouse macrophages; assay: Total cholesterol in peritoneal macrophages by stable isotope dilution LC/MS/MS (Example 5); assay type: in vivo, C57BL/6J.Apoe−/− male mice; conditions: chow with 1.3% choline, 1.3% DMB, both or neither
Experimental: Experiments were conducted during development of embodiments of the present invention to determine the effect of DMB on total cholesterol level in peritoneal mouse macrophages (SEE FIG. 7). C57BL/6J.Apoe−/− male mice at the time of weaning (4 weeks) were placed on chow diet supplemented with 1.3% choline, 1.3% DMB, both, or neither. The total cholesterol of cells was quantified by stable isotope dilution LC/MS/MS. Cells number was quantified by protein content in cell lystates.

[8] = tested on: Peritoneal macrophages; assay: Cholesterol accumulation and foam cell formation in peritoneal macrophages, oil red O staining (Example 4); assay type: in vivo, C57BL/6J.Apoe−/− male mice; conditions: 1.3% DMB added to 1.3% choline diet
Experimental: Experiments were conducted during development of embodiments of the present invention to examine the effect of addition of DMB on cholesterol accumulation and foam cell formation. C57BL/6J.Apoe−/− male mice at the time of weaning (4 weeks) were placed on chow diet supplemented with 1.3% choline, 1.3% DMB, both, or neither. Peritoneal macrophages were collected, fixed in 4% paraformaldehyde and stained with oil red 0/hematoxin.

[9] = tested on: C57BL/6J.Apoe−/− male mice; assay: Aortic root lesion plaque, oil red O staining (Example 2); assay type: in vivo
Description: C57BL/6J.Apoe−/− male mice at the time of weaning (4 weeks) were placed on chow diet supplemented with 1.3% choline, 1.3% DMB, both, or neither. Aortic root section was stained with oil red 0/hematoxin. The red oil staining area inside the aorta indicates lesion plaque (SEE FIGS. 3 and 4).

[10] = tested on: gut flora; assay: Plasma TMAO by stable isotope dilution LC/MS/MS in the mice of the platelet aggregation study; assay type: in vivo; conditions: high choline diet +/- antibiotics or DMB
Experimental: as §1

[11] = tested on: intestinal microflora; assay: Intestinal microflora-catalyzed generation of trimethylamine from D9-choline in cecum homogenate (Example 6); assay type: biochemical, Mouse; conditions: D9-choline substrate
Experimental: Experiments were conducted during development of embodiments of the present invention to examine the effect of DMB on intestinal microflora-catalyzed generation of trimethylamine from choline. Mouse celum was homogenized as a source of intestinal microflora. D9-choline was used as a substrate and the generation of […] was quantificed by stable isotope dilution LC/MS/MS.

[12] = tested on: proteus mirabilis; assay: TMA production from choline by proteus mirabilis (FIG. 24); assay type: cell-based

Row | SMILES | macrophage cholesterol content [1] | plasma levels of TMAO [1] | platelet aggregation (response to ADP) [2] | in vivo thrombosis rates (time to cessation of blood flow in the carotid artery) [3] | in vivo thrombosis rates [4] | plasma TMA [5] | plasma TMAO [5] | plasma HDL cholesterol [6] | plasma low density lipoprotein-cholesterol [6] | plasma total cholesterol [6] | plasma triglyceride [6] | macrophage cholesterol content (total cholesterol of cells) [7] | cholesterol accumulation and foam cell formation [8] | reduction of aortic plaque formation ([9]; 1.3% DMB added to normal chow diet, apoE−/− mice) | increases in atherosclerotic plaque induced by the high choline diet ([9]; addition to chow with 1.3% choline) | plasma TMAO levels [10] | TMAO levels ([4]; high choline diet +/- ABS or DMB for 3 weeks) | gut flora-mediated catabolism of choline to TMA [11] | TMA production from choline [12]
1 | C[N+](C)(C)[O-] [TMAO, trimethylamine N-oxide, reference compound] | increased macrophage cholesterol content | elevated plasma levels of TMAO | promotes enhanced platelet aggregation | promotes accelerated in vivo thrombosis rates | Enhances In Vivo Thrombosis Rates | – | – | – | – | – | – | – | – | – | – | – | – | – | –
2 | CC(C)(C)CCO [DMB, 3,3-dimethyl-1-butanol] | no increased accumulation of cholesterol in endogenous macrophages | no TMAO increase | markedly reduces platelet hyperresponsiveness; also recorded: blocks platelet hyper-responsiveness (aggregation) | – | block the reduction in in vivo thrombosis rates seen on a high choline diet | inhibits TMA and TMAO formation | inhibits TMA and TMAO formation | increase in high density lipoproteins | significant reductions | significant reductions | significant reductions | blocked | reversed the high choline diet induced cholesterol accumulation and foam cell formation | ~90% | blocks the diet-induced enhanced artherosclerosis | inhibits TMAO formation | block TMAO levels | markedly inhibited | –
3 | C[Si](C)(C)CCO [trimethylsilylethanol, trimethylsilyl ethanol] | – | – | – | – | – | – | – | – | – | – | – | – | – | – | – | – | – | – | serves as an inhibitor of TMA production from choline
